Tests used:
[1] = Cmax in rat at 25 mg/kg, po dosed as solution in PEG400/EtOH; format: ADME, organism-based; parameters: dose 25 mg/kg, route oral; conditions: in vivo
[2] = Cytotoxicity against human HeLa67 cells expressing CD4/CCR5 after 3 days by XTT assay; format: cell-based
[3] = test system: Human immunodeficiency virus 1; assay: Antiviral activity against pseudotype HIV1 JRFL infected in human HeLa67 cells expressing CD4/CCR5 after 3 days by luciferase reporter gene assay; format: functional, organism-based; conditions: Human immunodeficiency virus 1, JRFL, HeLa67, 72 h
[4] = Clearance in rat at 5 mg/kg, iv dosed as solution in PEG400/EtOH; format: ADME, organism-based; parameters: dose 5 mg/kg, route intravenous; conditions: in vivo
[5] = Volume of distribution at steady state in rat at 5 mg/kg, iv dosed as solution in PEG400/EtOH; format: ADME, organism-based; parameters: dose 5 mg/kg, route intravenous; conditions: in vivo, read-out: Vdss
[6] = Terminal half life in rat at 5 mg/kg, iv dosed as solution in PEG400/EtOH; format: ADME, organism-based; parameters: dose 5 mg/kg, route intravenous; conditions: in vivo, read-out: beta t1/2
[7] = Mean residence time in rat at 5 mg/kg, iv dosed as solution in PEG400/EtOH; format: ADME, organism-based; parameters: dose 5 mg/kg, route intravenous; conditions: in vivo
[8] = Tmax in rat at 25 mg/kg, po dosed as solution in PEG400/EtOH; format: ADME, organism-based; parameters: dose 25 mg/kg, route oral; conditions: in vivo
[9] = Terminal half life in rat at 25 mg/kg, po dosed as solution in PEG400/EtOH; format: ADME, organism-based; parameters: dose 25 mg/kg, route oral; conditions: in vivo, read-out: beta t1/2
[10] = Oral bioavailability in rat at 25 mg/kg dosed as solution in PEG400/EtOH; format: ADME, organism-based; conditions: in vivo
[11] = Permeability across human Caco-2 cells; format: ADME, cell-based; conditions: read-out: permeability
[12] = Clearance in rat at 1 mg/kg, iv dosed as solution in PEG400/EtOH; format: ADME, organism-based; parameters: dose 1 mg/kg, route intravenous; conditions: in vivo
[13] = Volume of distribution at steady state in rat at 1 mg/kg, iv dosed as solution in PEG400/EtOH; format: ADME, organism-based; parameters: dose 1 mg/kg, route intravenous; conditions: in vivo, read-out: Vdss
[14] = Terminal half life in rat at 1 mg/kg, iv dosed as solution in PEG400/EtOH; format: ADME, organism-based; parameters: dose 1 mg/kg, route intravenous; conditions: in vivo, read-out: beta t1/2
[15] = Mean residence time in rat at 1 mg/kg, iv dosed as solution in PEG400/EtOH; format: ADME, organism-based; parameters: dose 1 mg/kg, route intravenous; conditions: in vivo
[16] = Cmax in rat at 5 mg/kg, po dosed as solution in PEG400/EtOH; format: ADME, organism-based; parameters: dose 5 mg/kg, route oral; conditions: in vivo
[17] = Tmax in rat at 5 mg/kg, po dosed as solution in PEG400/EtOH; format: ADME, organism-based; parameters: dose 5 mg/kg, route oral; conditions: in vivo
[18] = Terminal half life in rat at 5 mg/kg, po dosed as solution in PEG400/EtOH; format: ADME, organism-based; parameters: dose 5 mg/kg, route oral; conditions: in vivo, read-out: beta t1/2
[19] = Oral bioavailability in rat at 5 mg/kg dosed as solution in PEG400/EtOH; format: ADME, organism-based; conditions: in vivo
[20] = test system: Human immunodeficiency virus 1; assay: Antiviral activity against pseudotype HIV1 LAI infected in human HeLa67 cells expressing CD4/CCR5 after 3 days by luciferase reporter gene assay; format: functional, organism-based; conditions: Human immunodeficiency virus 1, LAI, HeLa67, 72 h

Row | EC50 [3] [nM] | Compound | CC50 at 72 h [2] [µM] | further results
1 | 153 | O=C(C(=O)N1CCN(C(=O)c2ccccc2)CC1)c1c[nH]c2ccccc12 | 339 | Cmax [1]: 1040 ng/mL; clearance [4]: 57 mL/min/kg; Vd [5]: 1.5 L/kg; half-life [6]: 0.5 h; MRT [7]: 0.433 h; Tmax [8]: 0.55 h; half-life [9]: 2.72 h; bioavailability [10]: 29%; Papp [11]: 22.8 ×10⁻⁶ cm/s
2 | 0.5 | CCOc1cccc2c(C(=O)C(=O)N3CCN(C(=O)c4ccccc4)CC3)c[nH]c12 | 117 | –
3 | 121000 | N#Cc1ccc2[nH]cc(C(=O)C(=O)N3CCN(C(=O)c4ccccc4)CC3)c2c1 | > 300 | –
4 | 0.07 | COc1ccc(Cl)c2[nH]cc(C(=O)C(=O)N3CCN(C(=O)c4ccccc4)CC3)c12 | > 300 | –
5 | 4.5 | O=C(C(=O)N1CCN(C(=O)c2ccccc2)CC1)c1c[nH]c2cccc(Br)c12 | 142 | –
6 | 150 | O=C(C(=O)N1CCN(C(=O)c2ccccc2)CC1)c1c[nH]c2cccc([N+](=O)[O-])c12 | > 300 | –
7 | 952 | CC(=O)Oc1ccc2[nH]cc(C(=O)C(=O)N3CCN(C(=O)c4ccccc4)CC3)c2c1 | 95.2 | –
8 | 208 | O=C(C(=O)N1CCN(C(=O)c2ccccc2)CC1)c1c[nH]c2cc(Cl)ccc12 | > 110 | –
9 | 329 | COc1ccc2c(C(=O)C(=O)N3CCN(C(=O)c4ccccc4)CC3)c[nH]c2c1 | > 300 | –
10 | 24900 | CC(=O)Oc1cccc2[nH]cc(C(=O)C(=O)N3CCN(C(=O)c4ccccc4)CC3)c12 | > 300 | –
11 | 6760 | C/C=C/n1cc(C(=O)C(=O)N2CCN(C(=O)c3ccccc3)CC2)c2ccccc21 | 202 | –
12 | 1.7 | O=C(C(=O)N1CCN(C(=O)c2ccccc2)CC1)c1c[nH]c2c(F)c(F)c(F)c(F)c12 | 55.7 | –
13 | 1450 | CCn1cc(C(=O)C(=O)N2CCN(C(=O)c3ccccc3)CC2)c2ccccc21 | > 300 | –
14 | 21100 | COc1ccc2[nH]cc(C(=O)C(=O)N3CCN(C(=O)c4ccccc4)CC3)c2c1 | > 300 | –
15 | 3800 | O=C(C(=O)N1CCN(C(=O)c2ccccc2)CC1)c1c[nH]c2ccc([N+](=O)[O-])cc12 | 44.6 | –
16 | 0.45 | CCOc1cccc2[nH]cc(C(=O)C(=O)N3CCN(C(=O)c4ccccc4)CC3)c12 | > 94.8 | –
17 | 42.8 | O=C(C(=O)N1CCN(C(=O)c2ccccc2)CC1)c1c[nH]c2c(Br)ccc(OC(F)(F)F)c12 | 75.7 | –
18 | 838 | O=C(C(=O)N1CCN(C(=O)c2ccccc2)CC1)c1c[nH]c2ccc(F)cc12 | > 300 | –
19 | 395 | O=C(C(=O)N1CCN(C(=O)c2ccccc2)CC1)c1c[nH]c2ccc(Cl)cc12 | 46 | –
20 | 1090 | O=C(C(=O)N1CCN(C(=O)c2ccccc2)CC1)c1c[nH]c2ccc(Br)cc12 | > 149 | –
21 | 0.13 | O=C(C(=O)N1CCN(C(=O)c2ccccc2)CC1)c1c[nH]c2c(Br)ccc(F)c12 | 39.8 | –
22 | 1550 | Cc1ccc2[nH]cc(C(=O)C(=O)N3CCN(C(=O)c4ccccc4)CC3)c2c1 | > 300 | –
23 | 23.1 | O=C(C(=O)N1CCN(C(=O)c2ccccc2)CC1)c1c[nH]c2cc(F)c(Br)c(F)c12 | 20.9 | –
24 | 0.35 | O=C(C(=O)N1CCN(C(=O)c2ccccc2)CC1)c1c[nH]c2c(F)ccc(F)c12 | > 300 | clearance [12]: 46.9 mL/min/kg; Vd [13]: 0.85 L/kg; half-life [14]: 0.283 h; MRT [15]: 0.317 h; Cmax [16]: 55 ng/mL; Tmax [17]: 0.333 h; half-life [18]: 9.18 h; bioavailability [19]: 11%; Papp [11]: 21.9 ×10⁻⁶ cm/s
25 | 24.2 | CCc1cccc2c(C(=O)C(=O)N3CCN(C(=O)c4ccccc4)CC3)c[nH]c12 | > 49 | –
26 | > 290 | O=C(C(=O)N1CCN(C(=O)c2ccccc2)CC1)c1c[nH]c2cc(F)c(F)cc12 | 170 | –
27 | 4.9 | N#Cc1cccc2c(C(=O)C(=O)N3CCN(C(=O)c4ccccc4)CC3)c[nH]c12 | 234 | –
28 | 0.14 | CCCCOc1cccc2c(C(=O)C(=O)N3CCN(C(=O)c4ccccc4)CC3)c[nH]c12 | 64.5 | –

Row | EC50 [3] [nM] | Compound | CC50 at 72 h [2] [µM] | further results
29 | 1.9 | N#Cc1ccc(F)c2c(C(=O)C(=O)N3CCN(C(=O)c4ccccc4)CC3)c[nH]c12 | > 300 | –
30 | 0.42 | O=C(C(=O)N1CCN(C(=O)c2ccccc2)CC1)c1c[nH]c2cc(F)cc(F)c12 | > 188 | –
31 | 17.4 | O=C(C(=O)N1CCN(C(=O)c2ccccc2)CC1)c1c[nH]c2c(Br)cccc12 | 64 | –
32 | 89.5 | Cc1cccc2c(C(=O)C(=O)N3CCN(C(=O)c4ccccc4)CC3)c[nH]c12 | > 218 | –
33 | > 500 | N#Cc1ccc(F)c2[nH]cc(C(=O)C(=O)N3CCN(C(=O)c4ccccc4)CC3)c12 | > 300 | –
34 | > 5000 | O=C(C(=O)N1CCN(C(=O)c2ccccc2)CC1)c1c[nH]c2cc(C(F)(F)F)ccc12 | 54.5 | –
35 | > 500 | Cc1ccc(C)c2c(C(=O)C(=O)N3CCN(C(=O)c4ccccc4)CC3)c[nH]c12 | 202 | –
36 | 20100 | O=C(C(=O)N1CCN(C(=O)c2ccccc2)CC1)c1c[nH]c2cccc(O)c12 | > 300 | –
37 | 0.13 | COc1ccc(Br)c2[nH]cc(C(=O)C(=O)N3CCN(C(=O)c4ccccc4)CC3)c12 | 118 | –
38 | > 500 | O=C(C(=O)N1CCN(C(=O)c2ccccc2)CC1)c1c[nH]c2cc(Cl)c(F)cc12 | 98.5 | –
39 | 0.56 | Cc1ccc(F)c2c(C(=O)C(=O)N3CCN(C(=O)c4ccccc4)CC3)c[nH]c12 | 87.5 | –
40 | 0.23 | COc1ccc(OC)c2c(C(=O)C(=O)N3CCN(C(=O)c4ccccc4)CC3)c[nH]c12 | 279 | clearance [12]: 5.2 mL/min/kg; Vd [13]: 0.52 L/kg; half-life [14]: 2.3 h; MRT [15]: 1.7 h; Cmax [16]: 3200 ng/mL; Tmax [17]: 3 h; half-life [18]: 1.85 h; bioavailability [19]: 107%
41 | 0.06 | COc1ccc(C#N)c2[nH]cc(C(=O)C(=O)N3CCN(C(=O)c4ccccc4)CC3)c12 | > 275 | –
42 | 7.3 | O=C(C(=O)N1CCN(C(=O)c2ccccc2)CC1)c1c[nH]c2c(F)cccc12 | > 152 | –
43 | 265 | Cn1cc(C(=O)C(=O)N2CCN(C(=O)c3ccccc3)CC2)c2ccccc21 | 226 | –
44 | 46500 | COc1cc2[nH]cc(C(=O)C(=O)N3CCN(C(=O)c4ccccc4)CC3)c2cc1OC | > 300 | –
45 | 4.4 | O=C(C(=O)N1CCN(C(=O)c2ccccc2)CC1)c1c[nH]c2c(Cl)cccc12 | 162 | –
46 | > 500 | CC(C)Oc1cccc2[nH]cc(C(=O)C(=O)N3CCN(C(=O)c4ccccc4)CC3)c12 | 150 | –
47 | 0.06 | COc1ccc(F)c2c(C(=O)C(=O)N3CCN(C(=O)c4ccccc4)CC3)c[nH]c12 | > 300 | –
48 | 73.1 | O=C(C(=O)N1CCN(C(=O)c2ccccc2)CC1)c1c[nH]c2c(Br)cc(F)cc12 | 22.5 | –
49 | 6.6 | COc1cccc2c(C(=O)C(=O)N3CCN(C(=O)c4ccccc4)CC3)c[nH]c12 | 154 | –
50 | – | O=C(C(=O)N1CCN(C(=O)c2ccccc2)CC1)c1c[nH]c2cc(Cl)c(Cl)cc12 | 52.3 | EC50 [20]: 0.5 µM
51 | 0.71 | O=C(C(=O)N1CCN(C(=O)c2ccccc2)CC1)c1c[nH]c2c(OCC(F)(F)F)ccc(F)c12 | 196 | –
52 | 4.3 | O=C(C(=O)N1CCN(C(=O)c2ccccc2)CC1)c1c[nH]c2cccc(Cl)c12 | 212 | –
53 | 0.52 | COc1cccc2[nH]cc(C(=O)C(=O)N3CCN(C(=O)c4ccccc4)CC3)c12 | > 300 | –
54 | 21.1 | O=C(C(=O)N1CCN(C(=O)c2ccccc2)CC1)c1c[nH]c2cc(F)ccc12 | > 245 | –
55 | 8.2 | O=C(C(=O)N1CCN(C(=O)c2ccccc2)CC1)c1c[nH]c2c(F)ccc(Br)c12 | 86 | –

Row | Compound | EC50 [3] [nM] | CC50 at 72 h [2] [µM] | further results
56 | O=C(C(=O)N1CCN(C(=O)c2ccccc2)CC1)c1cn(Cc2ccccc2)c2ccccc12 | 13800 | 182 | –
57 | CCCCn1cc(C(=O)C(=O)N2CCN(C(=O)c3ccccc3)CC2)c2ccccc21 | 2650 | > 300 | –
